Among the test systems are SN12C renal; SF-539 CNS; UACC-62 melanoma; CAKI-1 renal; HCC-2998 colon; UACC-257 melanoma; SK-OV-3 ovarian; MALME-3M melanoma.
Common to all, as to experiment: NCI anticancer screen, dose series, 48 h

Structures are written as SMILES. “And” between values parts separate entries of the source, which are not always exact repeats. Identical values can stand only once.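 Tested at 5 concentrations; 48 h exposure; 96-well plates; endpoints linearly interpolated, else capped at highest concentration. GI50 marks 50% less growth. TGI marks complete inhibition of growth.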

In the case of `C#CC[C@H](c1nc2cc(Cl)ccc2c(=O)n1Nc1ccccc1)N(CCCN)C(=O)c1cccc(Cl)c1F`, the GI50 is 0.205 µM in the test with SN12C renal; 0.183 µM in the test on SF-539 CNS; 0.636 µM with UACC-62 melanoma; 2.6 µM in the test on CAKI-1 renal; 0.178 µM in the test with HCC-2998 colon; 1.02 µM with UACC-257 melanoma. Further, the GI50 in the test on SK-OV-3 ovarian is 0.116 µM; in the test on MALME-3M melanoma, 1.05 µM. Also, the TGI was found to be 1.98 µM with SN12C renal; 0.65 µM in the test with SF-539 CNS; 2 µM in the test on UACC-62 melanoma; 8.19 µM with CAKI-1 renal; 1.39 µM with HCC-2998 colon; 2.37 µM with UACC-257 melanoma. For the same compound, the TGI stood at 1.59 µM in the test with SK-OV-3 ovarian and 2.45 µM in the test on MALME-3M melanoma.
In the case of `Cc1ccc(C(=O)N/N=C/c2cccc(Oc3ccccc3)c2)cn1`, the GI50 in the test with SN12C renal was 17.3 µM; in the test with SF-539 CNS, 10.6 µM; with UACC-62 melanoma it was 4.67 µM; in the test with CAKI-1 renal, 4.41 µM; with HCC-2998 colon, 16.1 µM; in the test with UACC-257 melanoma, over 56.3 µM. Besides, the GI50 in the test on SK-OV-3 ovarian was 13 µM; with MALME-3M melanoma it was 9.14 µM. Also, the TGI is over 100 µM in the test with SN12C renal; over 59.1 µM with SF-539 CNS; over 100 µM in the test with UACC-62 melanoma; over 100 µM in the test on CAKI-1 renal; over 100 µM in the test on HCC-2998 colon; over 100 µM with UACC-257 melanoma. For the same compound, the TGI in the test on SK-OV-3 ovarian and with MALME-3M melanoma was over 100 µM each time.
Turning to `CO/N=C1/NC(=O)/C(=C/c2ccc3ncccc3c2)S1`, the GI50 in the test on SN12C renal was 16.3 µM; with SF-539 CNS it was 8.27 µM; in the test with UACC-62 melanoma, 8.06 µM; with CAKI-1 renal, 8.49 µM; in the test on HCC-2998 colon it was over 25 µM; in the test with UACC-257 melanoma, 18 µM. For the same compound, the GI50 with SK-OV-3 ovarian is 7.78 µM; in the test on MALME-3M melanoma, 13.9 µM. Moreover, the TGI in the test on SN12C renal, in the test on SF-539 CNS, with UACC-62 melanoma, in the test on CAKI-1 renal, in the test with HCC-2998 colon and with UACC-257 melanoma was over 25 µM throughout. For the same compound, the TGI in the test with SK-OV-3 ovarian and in the test with MALME-3M melanoma was over 25 µM in each case.
As for `Cc1nc(NC(=S)Nc2ccc(F)cc2)sc1C(=O)NNC(=S)Nc1ccc(F)cc1`, the GI50 was 10.2 µM in the test with SN12C renal; 13 µM in the test on SF-539 CNS; 3.01 µM in the test with UACC-62 melanoma; 11.4 µM with CAKI-1 renal; 6.6 µM with HCC-2998 colon; 10.1 µM in the test with UACC-257 melanoma. For the same compound, the GI50 in the test on SK-OV-3 ovarian is 15.7 µM; in the test on MALME-3M melanoma, 13.1 µM. The TGI in the test on SN12C renal came to 32.1 µM; in the test on SF-539 CNS, 26.2 µM; with UACC-62 melanoma, 18.9 µM; in the test on CAKI-1 renal it was 44.9 µM; in the test with HCC-2998 colon, 22.5 µM; in the test on UACC-257 melanoma it was 36.8 µM. Moreover, the TGI was found to be 61.6 µM with SK-OV-3 ovarian and 35.5 µM in the test with MALME-3M melanoma.
`CN(/N=N/c1nc(OCc2ccccc2)c2[nH]cnc2n1)C(=O)N(C)/N=N/c1nc(OCc2ccccc2)c2[nH]cnc2n1`: the GI50 in the test on SN12C renal was 56.6 µM; in the test with SF-539 CNS, 38.4 µM; with UACC-62 melanoma it was 30.8 µM; in the test on CAKI-1 renal, 17 µM; in the test on HCC-2998 colon it was 19.3 µM; with UACC-257 melanoma, 54.7 µM. Besides, the GI50 with SK-OV-3 ovarian is 42.1 µM; with MALME-3M melanoma, 40.8 µM. Further, the TGI with SN12C renal is over 100 µM; with SF-539 CNS, over 100 µM; in the test on UACC-62 melanoma it was over 100 µM; in the test with CAKI-1 renal, 63.5 µM; in the test with HCC-2998 colon it was 81.6 µM; in the test with UACC-257 melanoma, over 100 µM. Moreover, the TGI in the test with SK-OV-3 ovarian and in the test on MALME-3M melanoma was over 100 µM each time.
Take `CC1(C)N=C(N)N=C(N)N1c1cccc(CCCCc2ccc(S(=O)(=O)F)cc2Cl)c1`: the GI50 is 0.834 µM in the test on SN12C renal; 2.06 µM in the test on SF-539 CNS; 0.494 µM in the test on UACC-62 melanoma; 9.21 µM in the test on CAKI-1 renal; 5.47 µM with HCC-2998 colon; 2.15 µM in the test on UACC-257 melanoma. The figures for the GI50 in the test with SK-OV-3 ovarian and with MALME-3M melanoma were 24.6 µM and 1.12 µM, respectively. Besides, the TGI was 22.5 µM in the test on SN12C renal; 20.1 µM in the test on SF-539 CNS; 17.1 µM in the test on UACC-62 melanoma; over 100 µM with CAKI-1 renal; 38.8 µM with HCC-2998 colon; 20.8 µM in the test with UACC-257 melanoma. Besides, the TGI was over 100 µM in the test with SK-OV-3 ovarian and 28.2 µM in the test on MALME-3M melanoma.
In the case of `Cc1nn2c(/C=C3/C(=O)Nc4ccc(Cl)cc43)c(-c3ccccc3)nc2s1`, the GI50 in the test on SN12C renal was 3.95 µM; in the test with SF-539 CNS it was 2.25 µM; in the test on UACC-62 melanoma it was 3.8 µM; in the test with CAKI-1 renal it was 1.92 µM; in the test on HCC-2998 colon it was 9.59 µM; with UACC-257 melanoma it was 3.11 µM. Further, the GI50 was 2.25 µM in the test with SK-OV-3 ovarian and 2.17 µM in the test with MALME-3M melanoma. Further, the TGI in the test on SN12C renal was found to be 18.4 µM; in the test on SF-539 CNS, 6.54 µM; in the test with UACC-62 melanoma, 18.5 µM; in the test with CAKI-1 renal, 6.3 µM; in the test on HCC-2998 colon, 37 µM; in the test on UACC-257 melanoma it was 11.1 µM. The TGI with SK-OV-3 ovarian came out at 5.03 µM; with MALME-3M melanoma, 5.57 µM.
For `Cc1ccc(NS(=O)(=O)c2cc(C)ccc2C)cc1`, the GI50 in the test with SN12C renal is 5.89 µM; with SF-539 CNS, 4.21 µM; with UACC-62 melanoma it was 3.08 µM; in the test on CAKI-1 renal, 3.25 µM; in the test with HCC-2998 colon it was 7 µM; in the test on UACC-257 melanoma, 10.2 µM. The GI50 was 3.68 µM in the test on SK-OV-3 ovarian and 5.36 µM in the test with MALME-3M melanoma. Further, the TGI in the test with SN12C renal amounted to 19.9 µM; in the test with SF-539 CNS it was 15.1 µM; with UACC-62 melanoma, 19.9 µM; in the test on CAKI-1 renal, 29.2 µM; in the test with HCC-2998 colon, 28 µM; in the test with UACC-257 melanoma it was 47.4 µM. The TGI came out at 21.3 µM with SK-OV-3 ovarian and 38.6 µM in the test on MALME-3M melanoma.
In the case of `Cc1c(CN2CCC(Nc3ncnc4sc(CC(F)(F)F)cc34)CC2)ccc2c1cc(C#N)n2Cc1cn[nH]c1`, the GI50 in the test with SN12C renal was 8.76 µM; in the test on SF-539 CNS, 7.37 µM and 15 µM; in the test on UACC-62 melanoma, 6.53 µM and 8.73 µM; with CAKI-1 renal, 4.43 µM; with HCC-2998 colon, 1.86 µM and 2.8 µM; with UACC-257 melanoma, 1.37 µM and 5.31 µM. For the same compound, the GI50 in the test with SK-OV-3 ovarian is 10 µM and > 24.1 µM; in the test on MALME-3M melanoma it was 1.31 µM and 2.77 µM. Moreover, the TGI with SN12C renal was 26.4 µM; in the test with SF-539 CNS, over 51.4 µM; with UACC-62 melanoma, 24.9 µM and > 44.3 µM; with CAKI-1 renal, 22.1 µM and > 40.3 µM; in the test on HCC-2998 colon, 4.38 µM and 10.9 µM; in the test with SK-OV-3 ovarian, over 47.4 µM. For the same compound, in the test with MALME-3M melanoma, the TGI was 2.95 µM and 15.3 µM.
